Holding throughout (assay type): in vivo
In experiment [1] the test system is Solanum nigrum (SOLNI). Kind of experiment: Example B pre-emergence herbicidal test, glasshouse. The following applies: rate 1000 g/ha, evaluated after 13 days, 100=total damage to plant, 0=no damage to plant. In a few lines: (§1)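 Seeds sown in standard soil; sprayed 1 day after sowing (pre-emergence) or after 8 days' growth (post-emergence) with aqueous spray from formulation in acetone/water 50:50 with 0.5% Tween 20. Glasshouse 24/16 °C day/night, 14 h light, 65% humidity; damage scored after 13 days (0 none, 100 total).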

Experiment [2] concerns Echinochloa crus-galli (ECHCG). The experiment is described as above. The following applies: evaluated after 13 days, 100=total damage to plant, 0=no damage to plant; for Pre-Emergence Activity ECHCG: rate 1000 g/ha; for pest or weed control at 250 g/ha: Echinochloa crus-galli, 312 h, rate 250 g/ha, read-out: Pre-Emergence Activity ECHGG. Summed up: as §1
In experiment [3] the test system is Alopecurus myosuroides (ALOMY). The description is as above. Particulars: 312 h, evaluated after 13 days, 100=total damage to plant, 0=no damage to plant; for pest or weed control at 1000 g/ha: rate 1000 g/ha; for pest or weed control at 250 g/ha: rate 250 g/ha. In a few lines: as §1
The subject of experiment [4] is Amaranthus retoflexus (AMARE). Described as above. The following applies: Amaranthus retroflexus, 312 h, evaluated after 13 days, 100=total damage to plant, 0=no damage to plant; for pest or weed control at 1000 g/ha: rate 1000 g/ha; for pest or weed control at 250 g/ha: rate 250 g/ha. Summed up:
as §1

For experiment [5], the system named is Avena fatua (AVEFA). The experiment is described as above. Particulars: 312 h, evaluated after 13 days, 100=total damage to plant, 0=no damage to plant; for pest or weed control at 1000 g/ha: rate 1000 g/ha; for pest or weed control at 250 g/ha: rate 250 g/ha. Summed up: as §1
The subject of experiment [6] is Setaria faberi (SETFA). Described as above. Particulars: evaluated after 13 days, 100=total damage to plant, 0=no damage to plant; for Pre-Emergence Activity SETFA: rate 1000 g/ha; for pest or weed control at 250 g/ha: Setaria faberi, 312 h, rate 250 g/ha, read-out: Pre-Emergence Activity SEFTA. In a few lines: as §1
In experiment [7] the test system is Solanum nigrum (SOLNI). The experiment can be described thus: Example B post-emergence herbicidal test, glasshouse. The following applies: 312 h, rate 1000 g/ha, evaluated after 13 days, read-out: Post-Emergence Activity SOLNI (100=total damage to plant; 0=no damage to plant). In a few lines:
as §1

Experiment [8] relates to Echinochloa crus-galli (ECHCG). Described as above. Particulars: 312 h, evaluated after 13 days; for pest or weed control at 1000 g/ha: rate 1000 g/ha, read-out: Post-Emergence Activity ECHCG (100=total damage to plant; 0=no damage to plant); for pest or weed control at 250 g/ha: rate 250 g/ha, read-out: Post-Emergence Activity ECHGG (100=total damage to plant; 0=no damage to plant). In a few lines: as §1

Experiment [9] deals with Alopecurus myosuroides (ALOMY). The description is as above. The following applies: 312 h, evaluated after 13 days, read-out: Post-Emergence Activity ALOMY (100=total damage to plant; 0=no damage to plant); for pest or weed control at 1000 g/ha: rate 1000 g/ha; for pest or weed control at 250 g/ha: rate 250 g/ha. In a few lines:
as §1

Experiment [10] concerns Amaranthus retoflexus (AMARE). The description is as above. Particulars: Amaranthus retroflexus, 312 h, evaluated after 13 days, read-out: Post-Emergence Activity AMARE (100=total damage to plant; 0=no damage to plant); for pest or weed control at 1000 g/ha: rate 1000 g/ha; for pest or weed control at 250 g/ha: rate 250 g/ha. Summed up: as §1
For experiment [11], the system named is Avena fatua (AVEFA). Described as above. Particulars: 312 h, evaluated after 13 days, read-out: Post-Emergence Activity AVEFA (100=total damage to plant; 0=no damage to plant); for pest or weed control at 1000 g/ha: rate 1000 g/ha; for pest or weed control at 250 g/ha: rate 250 g/ha. In a few lines: as §1
Experiment [12] concerns Setaria faberi (SETFA). Described as above. The following applies: 312 h, evaluated after 13 days; for pest or weed control at 1000 g/ha: rate 1000 g/ha, read-out: Post-Emergence Activity SETFA (100=total damage to plant; 0=no damage to plant); for pest or weed control at 250 g/ha: rate 250 g/ha, read-out: Post-Emergence Activity SEFTA (100=total damage to plant; 0=no damage to plant). In a few lines: as §1

Consider `CCc1sc(-c2ccc(Cl)cc2)nc1C1=C(OC(=O)C(C)(C)C)C(C)(C)OC(C)(C)C1=O` [Compound P2, 2,2-dimethylpropionic acid 4-[2-(4-chlorophenyl)-5-ethylthiazol-4-yl]-2,2,6,6-tetramethyl-5-oxo-5,6-dihydro-2H-pyran-3-yl ester], for which the “Pre-Emergence Activity SOLNI” value in [1] amounted to 0. Also, the “Pre-Emergence Activity ECHCG” value in experiment [2] came to 50. The pest or weed control at 1000 g/ha in experiment [3] is 60%; in experiment [4] it was 80%; in experiment [5], 30%; in experiment [7] it was 0%; in experiment [8], 100%; in experiment [9] it was 90%. In addition, the pest or weed control at 1000 g/ha in [10] was found to be 0%; in [11] it was 90%; in experiment [12] it was 100%. In addition, in experiment [6], the “Pre-Emergence Activity SETFA” value worked out at 80.
Take `Cc1sc(-c2ccc(Cl)c(C(F)(F)F)c2)nc1C1C(=O)C(C)(C)OC(C)(C)C1=O` [Compound T15]: the pest or weed control at 1000 g/ha in experiment [7] worked out at 0%; in [8] it was 70%; in [9] it was 40%; in experiment [10], 0%; in [11], 0%; in experiment [12], 0%.
Consider `COC(=O)c1ccc(-c2cc(C3C(=O)C(C)(C)OC(C)(C)C3=O)c(C)s2)cc1` [Compound T20], for which the “Pre-Emergence Activity SOLNI” value in experiment [1] was 70. Further, in experiment [2], the “Pre-Emergence Activity ECHCG” value came to 0. For the same compound, the pest or weed control at 1000 g/ha in experiment [3] was 30%; in experiment [4] it was 80%; in experiment [5] it was 0%; in experiment [7] it was 0%; in [8], 0%; in experiment [9] it was 0%. The pest or weed control at 1000 g/ha in experiment [10] is 0%; in experiment [11] it was 0%; in experiment [12], 10%. For the same compound, in experiment [6], the “Pre-Emergence Activity SETFA” value came to 0.
Consider `Cc1sc(-c2ccc(F)cc2)nc1C1C(=O)C(C)(C)C(=O)C(C)(C)C1=O` [Compound T8], for which the “Pre-Emergence Activity SOLNI” value in experiment [1] was 0. Also, in experiment [2], the “Pre-Emergence Activity ECHCG” value worked out at 0. The pest or weed control at 1000 g/ha in experiment [3] was 30%; in experiment [4], 0%; in experiment [5], 20%; in [7], 20%; in experiment [8] it was 70%; in experiment [9], 40%. For the same compound, the pest or weed control at 1000 g/ha in [10] was 0%; in experiment [11], 0%; in [12] it was 80%. Moreover, the “Pre-Emergence Activity SETFA” value in experiment [6] is listed as 0.
With `Cc1ocnc1C1C(=O)C(C)(C)C(=O)C(C)(C)C1=O` [Compound T2], in experiment [1], the “Pre-Emergence Activity SOLNI” value is recorded as 60. Moreover, the “Pre-Emergence Activity ECHCG” value in experiment [2] was 0. In addition, the pest or weed control at 1000 g/ha in experiment [3] is 0%; in experiment [4], 50%; in experiment [5] it was 0%; in experiment [7] it was 40%; in [8] it was 0%; in experiment [9] it was 0%. Besides, the pest or weed control at 1000 g/ha in experiment [10], in [11] and in [12] was 0% throughout. Moreover, in experiment [6], the “Pre-Emergence Activity SETFA” value is given as 0.
Take `Cc1sc(-c2cc(Cl)ccc2Cl)nc1C1C(=O)C(C)(C)C(=O)C(C)(C)C1=O` [Compound T10, 6-[2-(2,5-dichlorophenyl)-5-methylthiazol-4-yl]-2,2,4,4-tetramethyl-cyclohexane-1,3,5-trione]: in [1], the “Pre-Emergence Activity SOLNI” value is reported as 0. The “Pre-Emergence Activity ECHCG” value in [2] came to 0. The pest or weed control at 1000 g/ha is 30% in [3]; 0% in experiment [4]; 20% in [5]; 20% in [7]; 70% in experiment [8]; 40% in [9]. The pest or weed control at 1000 g/ha in experiment [10] was 0%; in experiment [11] it was 0%; in [12] it was 80%. Also, the “Pre-Emergence Activity SETFA” value in [6] is 0.
On to `Cc1sc(-c2ccc(Cl)cc2)nc1C1C(=O)C(C)(C)C(=O)C(C)(C)C1=O` [Compound T1], for which the pest or weed control at 1000 g/ha turned out to be 0% in [7]; 90% in experiment [8]; 90% in experiment [9]; 0% in [10]; 80% in experiment [11]; 90% in experiment [12].
In the case of `Cc1sc(OCc2cnc(Br)s2)nc1C1C(=O)C(C)(C)OC(C)(C)C1=O` [Compound T14], the “Pre-Emergence Activity SOLNI” value in [1] amounted to 0. The pest or weed control at 250 g/ha amounted to 0% in experiment [2]; 0% in experiment [3]; 0% in experiment [4]; 0% in experiment [5]; 50% in [6]; 70% in experiment [8]. Further, the pest or weed control at 250 g/ha in [9] came out at 40%; in experiment [10], 0%; in experiment [11], 0%; in [12], 90%. Further, the “Pre-Emergence Activity ECHCG” value in experiment [2] is 0. Also, the pest or weed control at 1000 g/ha in [3] stood at 40%; in experiment [4], 0%; in [5], 0%. For the same compound, in experiment [6], the “Pre-Emergence Activity SETFA” value is 0.
With `Cc1sc(-c2ccc(Br)cc2F)nc1C1C(=O)C(C)(C)OC(C)(C)C1=O` [Compound T52], the pest or weed control at 250 g/ha stood at 80% in experiment [2]; 60% in experiment [3]; 0% in [4]; 0% in experiment [5]; 100% in [6]; 100% in [8]. Also, the pest or weed control at 250 g/ha in [9] was determined as 100%; in experiment [10], 0%; in [11], 100%; in [12] it was 100%.

The record behind these values is patent US8956999B2, “Herbicides” (Syngenta Limited, priority 2007, dated 2015).
